# Laboratory results published in patent US20220177533A1, “Recombinant TGF a for wound healing purposes, and the process thereof” (SREE CHITRA TIRUNAL INSTITUTE FOR MEDICAL SCIENCES AND …, priority 2018, published 2022).
# Assays:
# L929 cells = assay: MTT assay in L929 cells; assay type: cell-based; conditions: for cell viability: MTT, L929 cells
# Protocol: Prior testing in said in vivo model, an in vitro testing for the metabolic activity has been performed through executing MTT assay in a specific cell line.
# The MTT assay is carried out in L929 cells (ATCC, USA). […] 92.26%, 90.30% and 88.87% under these concentrations respectively. […] The results obtained are depicted in FIG. 3.
# [1] = tested on: skin (intra-cutaneous reactions); design: species or system rabbits (New Zealand White); conditions: rabbit, in vivo
# From the text: (§1) The declaration for skin irritation test is hereby made as the recombinant TGFα induced a total mean score of ‘0.55’ in test material and ‘◯’ in solvent following intra-dermal injection.
# (§2) For this study, 23 rabbits (New Zealand White) are taken and kept in a well-fed, healthy and aseptic condition to ensure the perfect outcome of the experimentation.
# rabbit wounds = assay: Wound healing study in rabbits, 4×4 cm incision on the back; assay type: in vivo, rabbits (New Zealand White)
# From the text: as §2
# Nine randomly selected rabbits (New Zealand White) are taken and a 4×4 cm incision was made right on the back of the animals. Following the application of Anesthetic Ketamine (Aneket, Neon Laboratories, India). This has been followed by application of recombinant TGFα to the “treated” group, and application of placebo, wherein except the growth factor, all the other conditions of “treated” group is followed.
# It is found to initiate cell proliferation in rabbit wounds within 7 days. […] Thus, the recombinant growth factor TGF α found to be suitable for enhancing the healing of chronic wounds.
# [2] = Antimicrobial / sterility test on test material
# From the text: On the safety side, recombinant TGF α passed the skin irritation test, sterility test and cytotoxicity tests, and found to be suitable for enhancing the healing of chronic wounds.
# as §1
substance,measurement,setting,value
"recombinant TGF α: recombinant TGF α of 51 amino acids (Sequence ID No.: 1), carved out of 160 amino acid TGF α, expressed in a prokaryotic system",cytotoxicity tests outcome,L929 cells,passed
same,cell viability,L929 cells; 0.0025 μg/ml,92.16%
same,cell viability,L929 cells; 0.025 μg/ml,92.26%
same,cell viability,L929 cells; 0.25 μg/ml,90.30%
same,cell viability,L929 cells; 2.5 μg/ml,88.87%
same,intra-cutaneous reactions (erythema and edema),[1],No intra-cutaneous reactions such as erythema and edema
same,skin irritation test outcome,[1],passed
same,"total mean score, skin irritation test",[1],0.55
same,healing of chronic wounds,rabbit wounds; rabbit models,enhance the healing of chronic wounds
same,wound finding on 14th day,"rabbit wounds; rabbit models, day 14",tissue regeneration and formation of epithelial layer
same,time to initiation of cell proliferation in rabbit wounds,"rabbit wounds; rabbit, 4×4 cm incision",≤ 7 days
same,vasculature and inflammatory response of the healing wound,"rabbit wounds; treated vs control, FIGS. 4C and 4T",higher number of vasculature and almost no inflammatory response
same,antimicrobial test outcome,[2],meeting the requirements for dermal applications
same,sterility test outcome,[2],passed
